Data taken from patent publication US20130065227A1, “METHODS OF INCREASING MACROPINOCYTOSIS IN CANCER CELLS” (priority 2010, published 2013).
{Fluor} = fluorophore: 5-carboxyfluorescein (FAM) or Alexa Fluor 488

Columns and labels:
[1] = system: cancer cells (DU145, HeLa, MDA-MB-231) and non-malignant Hs27 skin fibroblasts; test: Temperature-dependence of oligonucleotide uptake by flow cytometry; assay type: cell-based; settings: 10 μM, 37° C. or 4° C. for 2 h, all cell types
Description: FIG. 1 are graphs showing that AS1411 cell internalization is an active process. Cells were plated 18 h before uptake analysis. After incubation as described, cells were washed with ice-cold PBS, incubated with 1 μg/ml 7-AAD, harvested and resuspended in 1% paraformaldehyde containing 2 μg/ml actinomycin D, then analyzed by flow cytometry. (Panel A) DU145 cells were incubated at 37° C. with fresh complete DMEM medium containing 10 μM FL-AS1411 (black line) or 10 μM FL-CRO (gray line) for the time indicated. (Panel B) DU145 cells were incubated for 2 h at 37° C. in complete or serum-free DMEM medium containing 10 μM FL-AS1411, or 10 μM FL-CRO, or no oligonucleotide. (Panel C) Various cell lines were incubated with 10 μM FL-AS1411 (black outline histogram), 10 μM FL-CRO (gray outline histogram) or without DNA (solid gray histogram) at 37° C. or 4° C. for 2 h. All experiments were repeated at least three times. Data are mean of three independent samples; bars, SE; *(p<0.05). […]
To determine whether AS1411 uptake occurs through an active uptake process, the temperature-dependence of AS1411 uptake in cancer cells (DU145, HeLa, MDA-MB-231) and non-malignant Hs27 skin fibroblasts was evaluated using flow cytometry. […]

MCF10A = test: Stimulation of macropinocytosis (dextran uptake); assay type: cell-based, human; settings: MCF10A; Non-cancer, breast epithelial
Description: FIG. 10 are graphs showing the stimulation of macropinocytosis by GROs. Breast carcinoma cells (MDA-MB-231, MCF-7) or non-malignant breast epithelial cells (MCF10A) cells were plated 18 hr before treatment with 10 μM tAS1411 or 10 μM tCRO or water in complete DMEM medium at 37° C. for 48 hr or 72 hr. After treatment, cell medium was changed for fresh complete medium containing 0.2 mg/ml dextran-10K labeled with Alexa Fluor 488 and cells were incubated for 30 min at 37° C. Cells were then incubated on ice with 1 mg/ml PI in PBS, harvested, and analyzed by flow cytometry. Uptake was normalized to no pre-treatment controls and bars show the mean and SE of three independent experiments. […]
AS1411 causes a change in cancer cell morphology that is characterized by vacuolization, irregular nuclei, and swollen cells (Xu et al., 2001, J. Biol. Chem., 276:43221-30). […] To test this idea, DU145 cells were pre-treated for 24 h with tAS1411, then added FL-AS1411 and evaluated uptake after an additional 2 h using flow cytometry. […] This idea is not necessarily inconsistent with the time course data shown in FIG. 1A because the fluorescence signal may decrease over time for a number of reasons, including exocytosis of the ligand and fluorescence quenching due to protein binding or environmental factors (the fluorophore used for flow cytometry is particularly sensitive to acidic environments). […]

several cell lines = test: Annexin V / PI flow cytometry to assess cell death; assay type: cell-based
Description: (A) Trypan blue staining of U937 leukemia cells showing percentage of dead cells (trypan blue positive) over time. (B) U937 cells were untreated (Un) or treated with 1 μM AS1411 (1411) or control oligonucleotide (Ctrl) for 72 h. DNA was extracted, electrophoresed on an agarose gel and stained with ethidium bromide to probe DNA laddering. As a positive control, […] were treated with UV irradiation to induce apoptosis as previously described. […] (D) U937 cells treated as described for panel B, followed by protein extraction and immunoblotting (IB) to detect PARP cleavage and Caspase-3 activation. (E) DU145 prostate cancer cells were incubated with 10 μM of AS1411 for 24 h, or irradiated with UV (300 J/m^2 with UV Stratalinker 2400, Strategene), then cultured in fresh medium for 6 h. Assessment of cell death was carried out by flow cytometry to detect Annexin V-FITC binding and PI staining.

DU145 cells = assay type: cell-based; settings: 4 days, 10 μM AS1411
Description: DU145 cells were incubated for 4 days in the presence of 10 μM AS1411 with 3-MA at the concentration indicated, and cell number was assessed by MTT assay.
It also appears unlikely that AS1411-induced cell death is due to autophagy. […] Further evidence that supports the idea that AS1411 can induce methuosis comes from the similarity between the appearance of cells treated with AS1411 and published images of glioblastoma cells undergoing Ras-induced methuosis.

[2] = system: DU145 CD24^lo/CD44^hi cells; test: Spheroid culture; assay type: cell-based; settings: 10 μM AS1411, drug replenished weekly
Description: DU145 CD24^lo/CD44^hi cells were sorted by FACS, plated for sphere culture, and treated with or without 10 μM AS1411. Media was changed and drug replenished weekly. Plates were monitored for dissolution of spheres. Once dissolution was observed, serial photographs were taken of each well and the total number of spheres counted.

Substance | temperature dependence of uptake [1] | Stimulate MP? (MCF10A) | Annexin V / PI quadrant in which cells appear (several cell lines) | effect in combination with 3-MA (DU145 cells) | effect on spheroids [2]
5′-Fluor-d(TTTCCTCCTCCTCCTTCTCCTCCTCCTCC) (DNA TTTCCTCCTCCTCCTTCTCCTCCTCCTCC; DNA, 5' {Fluor}, backbone and methylation of C not given here) [FL-CRO, reference compound] | strong temperature dependence | – | – | – | –
5′-d(GGTGGTGGTGGTTGTGGTGGTGGTGG) [AS1411] | – | No | Annexin V-positive/propidium iodide (PI)-positive quadrant (indicative of necrosis) | additive | can cause disintegration of spheroids
